Results published in patent publication US20080254101A1, “PILOCARPINE COMPOSITIONS AND METHODS OF USE THEREOF” (priority 2004, published 2008).

Columns and labels:
[1] = Ionization of pilocarpine (pKa, pH = pKa + Log10 formula); assay type: physicochemical; conditions: at a pH of from about 7.6 to about 8.6, using the formula
Description: Conversion of the ionized form to the un-ionized form for pilocarpine is related to pH according to the formula: pH=pKa+Log10 (un-ionized concentration/ionized concentration). When the pH is the same as the pKa, equimolar concentrations of the un-ionized form and ionized form exist. For basic compounds such as pilocarpine, when the pH is one unit higher than the pKa, the ratio of the un-ionized form to the ionized form is 91:9. Similarly, when the pH is two units higher than the pKa, the ratio of un-ionized form to the ionized form is […]. As noted above, the un-ionized form is lipophilic and, therefore, more capable of passing through mucous membranes such as the oral mucosa than the ionized form, which is lipophobic in nature. Accordingly, increasing the pH of the saliva favors conversion of the ionized form into the un-ionized form for basic compounds such as pilocarpine, and the final pH can be determined by making use of the above formula. For pilocarpine, the tri-substituted nitrogen in the imidazole group controls the extent of ionization and the degree of lipophilicity in any given medium. Typically, the nitrogen in the imidazole group imparts a pKa of about 6.6 to the molecule at 37° C.

[2] = at 37° C., nitrogen in the imidazole group; cited from earlier work

In the case of CC[C@@H]1C(=O)OC[C@@H]1Cc1cncn1C [pilocarpine], the “conversion to an un-ionized form” value [1] is listed as “about 90%” and the pKa [2] is listed as “about 6.6”.
